Data published in the supplement of paper PMC10307832.

What was measured:
Assay in all cases: relative viability (nuclei count vs DMSO), 5 days (fraction); higher = more cells survive
[1] = compound: COC1=CC=C(C=C1)CN2C=CC3=C2C=C(C=C3)C(=O)NO
Procedure, shortened: (§1)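 Viability is treated-well nuclei as a fraction of vehicle-well nuclei, reported as the median across plates. Before counting, lung cancer cell lines were kept overnight at 37 °C in 1536-well plates, pinned with five √10-spaced library-drug doses on vehicle-anchored plates, and left 5 days without medium change, then fixed, permeabilised and Hoechst-stained in one step, imaged at 4× and counted by MetaXpress. A plate passed only if control CV was below 25% and at least one doubling occurred.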

Veliparib = compound: C[C@]1(c2nc3c(C(N)=O)cccc3[nH]2)CCCN1 [Veliparib]
Procedure, shortened: as §1

[2] = compound: COC1=CC=C(C=C1)CN2C=CC3=C2C=C(C=C3)C(=O)NO + Cc1nc(NC(=O)N2CCC[C@H]2C(N)=O)sc1-c1ccnc(C(C)(C)C(F)(F)F)c1 [Alpelisib] (partner 2 µM)
Procedure, shortened: (§2)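 Lung cancer cell lines, seeded in 1536-well plates, were treated the following day by pin tool with a single drug or with five library-drug doses (not always all listed) in √10 steps on top of a fixed anchor-drug dose. Cells were fixed and nuclei stained in one step after 5 days, and nuclei were counted. Relative viability is the nuclei count for treated wells divided by that for vehicle wells, reported as medians of duplicate plates.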

Veliparib + Pemetrexed = compound: C[C@]1(c2nc3c(C(N)=O)cccc3[nH]2)CCCN1 [Veliparib] + Nc1nc2[nH]cc(CCc3ccc(C(=O)N[C@@H](CCC(=O)O)C(=O)O)cc3)c2c(=O)[nH]1 [Pemetrexed] (partner 0.2 µM)
Procedure, shortened: as §2

| Cell Line | relative viability ([1]; 0.253 µM) | relative viability ([1]; 0.8 µM) | relative viability ([1]; 2.53 µM) | relative viability ([1]; 8 µM) | relative viability (Veliparib; 0.02 µM) | relative viability (Veliparib; 0.06325 µM) | relative viability (Veliparib; 0.2 µM) | relative viability (Veliparib; 0.6325 µM) | relative viability (Veliparib; 2 µM) | relative viability ([2]; first compound 0.253 µM) | relative viability ([2]; first compound 0.8 µM) | relative viability ([2]; first compound 2.53 µM) | relative viability ([2]; first compound 8 µM) | relative viability (Veliparib + Pemetrexed; first compound 0.02 µM) | relative viability (Veliparib + Pemetrexed; first compound 0.06325 µM) | relative viability (Veliparib + Pemetrexed; first compound 0.2 µM) | relative viability (Veliparib + Pemetrexed; first compound 0.6325 µM) | relative viability (Veliparib + Pemetrexed; first compound 2 µM) | relative viability ([1]; 0.08 µM) | relative viability ([2]; first compound 0.08 µM) |
| --- | --- | --- | --- | --- | --- | --- | --- | --- | --- | --- | --- | --- | --- | --- | --- | --- | --- | --- | --- | --- |
| LK-2 | 1.03 | 1.07 | 0.992 | 0.949 | 0.861 | 1.06 | 1.08 | 0.916 | 0.964 | 1.11 | 0.896 | 1.13 | 0.907 | 0.324 | 0.307 | 0.311 | 0.203 | 0.299 |  |  |
| LOU-NH91 | 0.95 | 1 | 0.991 | 0.944 | 0.941 | 0.893 | 1.01 | 0.931 | 0.992 | 0.71 | 0.769 | 0.731 | 0.69 | 0.394 | 0.374 | 0.39 | 0.374 | 0.374 | 0.717 | 0.635 |
| LU99A | 0.932 | 1.11 | 0.916 | 0.932 | 0.984 | 0.902 | 0.771 | 0.863 | 0.994 | 0.552 | 0.624 | 0.605 | 0.479 | 0.207 | 0.184 | 0.205 | 0.196 | 0.181 |  |  |
| LXF-289 | 1.01 | 1 | 0.992 | 0.992 | 0.996 | 0.992 | 1.03 | 0.941 | 1 | 1.03 | 1.12 | 1.05 | 1.01 | 0.897 | 1.02 | 0.913 | 0.856 | 0.997 |  | 0.394 |
| NCI-H23 | 1.06 | 1.09 | 0.968 | 0.721 | 0.89 | 0.77 | 0.948 | 0.951 | 0.96 | 0.834 | 0.643 | 0.737 | 0.756 | 0.615 | 0.593 | 0.623 | 0.747 | 0.622 | 0.776 | 0.535 |
| NCI-H322M | 0.948 | 1.06 | 0.925 | 0.931 |  | 0.872 | 1.07 | 0.963 | 0.903 | 0.726 | 0.769 | 0.845 | 0.656 |  | 0.582 | 0.611 | 0.568 | 0.614 |  |  |
| NCI-H358 | 0.945 | 1.09 | 0.976 | 0.746 | 0.762 | 0.856 | 0.924 | 0.941 | 0.94 | 0.941 | 0.985 | 0.919 | 0.829 | 0.206 | 0.173 | 0.165 | 0.146 | 0.176 |  |  |
| NCI-H441 | 1.03 | 1.18 | 1.04 | 0.867 | 1.09 | 0.967 | 0.982 | 0.772 | 0.884 | 0.8 | 0.644 | 0.917 | 0.554 | 0.292 | 0.265 | 0.3 | 0.254 | 0.289 | 0.997 | 0.711 |
| NCI-H460 | 1 | 0.994 | 0.992 | 0.968 | 0.93 | 0.952 | 0.967 | 0.931 | 0.964 | 0.535 | 0.506 | 0.359 | 0.338 | 0.0617 | 0.0618 | 0.0599 | 0.0593 | 0.0663 | 0.902 | 0.36 |
| NCI-H520 | 1.04 | 1.03 | 1.04 | 0.97 | 0.977 | 0.975 | 0.97 | 0.87 | 0.993 | 1.16 | 0.887 | 0.904 | 0.853 | 0.877 | 0.657 | 0.904 | 0.637 | 0.674 | 0.708 | 0.43 |
| NCI-H596 | 1.1 | 1.08 | 0.989 | 0.947 | 0.932 | 0.933 | 0.966 | 0.93 | 0.908 | 0.53 | 0.384 | 0.561 | 0.474 | 0.475 | 0.451 | 0.463 | 0.509 | 0.474 | 0.962 | 0.532 |
| NCI-H647 | 0.909 | 1.02 | 0.989 | 0.869 | 1.02 | 0.945 | 1.03 | 0.813 | 1.03 | 1.23 | 1.16 | 1.21 | 0.954 | 0.167 | 0.188 | 0.192 | 0.175 | 0.216 | 0.754 | 0.981 |
| NCI-H650 | 0.834 | 0.888 | 0.949 | 0.891 | 0.765 | 0.799 | 0.834 | 0.783 | 0.731 | 1.16 | 1.05 | 1.03 | 0.892 | 0.992 | 0.895 | 0.868 | 0.822 | 0.961 | 0.903 | 1.01 |
| NCI-H661 | 0.981 | 0.96 | 0.958 | 0.892 | 0.963 | 0.918 | 0.945 | 0.929 | 1 | 0.464 | 0.595 | 0.512 | 0.626 | 0.973 | 0.897 | 0.918 | 0.865 | 0.901 |  |  |
| NCI-H838 | 1.01 | 0.964 | 0.98 | 0.871 | 1.05 | 0.909 | 0.974 | 0.9 | 1.02 | 0.981 | 0.91 | 1.03 | 0.874 | 0.262 | 0.255 | 0.244 | 0.269 | 0.269 |  |  |
| NCI-H1355 | 0.996 | 0.987 | 0.995 | 0.874 |  | 0.835 | 1.03 | 0.943 | 0.944 | 0.892 | 0.905 | 0.883 | 0.901 | 0.874 | 0.998 | 1.01 | 0.962 | 1 | 0.814 | 0.793 |
| NCI-H1395 | 0.915 | 0.877 | 0.963 | 0.753 | 0.594 | 0.655 | 0.791 | 0.817 | 0.692 | 1.1 | 1.11 | 0.979 | 0.967 | 0.762 | 0.886 | 0.768 | 0.792 | 0.653 | 0.752 | 0.708 |
